In US20260102501A1, “ANTI-CANCER NUCLEAR HORMONE RECEPTOR-TARGETING COMPOUNDS” (Nuvation Bio Inc., priority 2022, published 2026):
Where a chain is given by its changes, count along the chain named. Where a name gives a salt, the structure may show the parent alone. Read-outs that look alike come from different tables or passages of the source.

What was measured:
[1] = target: T1, AR (cytosol from LnCaP cells) (Homo sapiens, UniProt P10275, T878A); test: AR binding assay (3H-R1881 displacement)
T1 sequence (P10275 1-920 T878A): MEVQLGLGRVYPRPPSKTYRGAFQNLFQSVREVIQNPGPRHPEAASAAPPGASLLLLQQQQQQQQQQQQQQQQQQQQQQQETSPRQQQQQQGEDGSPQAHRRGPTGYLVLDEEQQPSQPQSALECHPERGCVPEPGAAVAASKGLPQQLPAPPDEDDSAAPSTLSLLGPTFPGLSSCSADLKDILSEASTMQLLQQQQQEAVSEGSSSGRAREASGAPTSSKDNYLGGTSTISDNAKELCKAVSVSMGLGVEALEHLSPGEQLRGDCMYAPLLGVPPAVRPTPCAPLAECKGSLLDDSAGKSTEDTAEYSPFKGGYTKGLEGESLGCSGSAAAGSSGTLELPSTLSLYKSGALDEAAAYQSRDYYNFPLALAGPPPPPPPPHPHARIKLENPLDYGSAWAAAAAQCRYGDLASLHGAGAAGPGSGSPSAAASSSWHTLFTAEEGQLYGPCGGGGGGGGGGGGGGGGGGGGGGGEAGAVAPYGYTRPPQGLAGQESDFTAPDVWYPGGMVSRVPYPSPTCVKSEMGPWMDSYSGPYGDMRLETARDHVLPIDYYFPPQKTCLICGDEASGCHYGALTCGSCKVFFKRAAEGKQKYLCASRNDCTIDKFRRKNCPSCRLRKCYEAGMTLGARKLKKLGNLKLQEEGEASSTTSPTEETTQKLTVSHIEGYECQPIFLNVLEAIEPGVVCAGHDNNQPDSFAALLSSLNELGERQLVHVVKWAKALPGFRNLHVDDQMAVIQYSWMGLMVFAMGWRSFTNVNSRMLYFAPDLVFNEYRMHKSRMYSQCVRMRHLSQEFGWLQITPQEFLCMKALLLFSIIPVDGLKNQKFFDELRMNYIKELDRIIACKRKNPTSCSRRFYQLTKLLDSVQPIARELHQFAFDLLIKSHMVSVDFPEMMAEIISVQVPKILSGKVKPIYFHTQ
Experimental: The plate was then centrifuged at 3000 rpm for 30 minutes at 4° C.

[2] = system: LNCap cells; test: Cell viability assay (CellTiterGlo); format: cell-based; conditions: Homo sapiens, 144 h
[3] = system: 22Rv1 cells; test: Cell viability assay (CellTiterGlo); conditions: Homo sapiens, 22Rv1, 144 h, read-out: 22RV1 (IC50, nM)
[4] = system: IEC6 cells; test: Cell viability assay (CellTiterGlo); conditions: Rattus norvegicus, IEC-6, 144 h, read-out: IEC-6 (IC50, nM)
[5] = target: T2, full-length androgen receptor (HEK293 cells stably expressing) (Homo sapiens, UniProt P10275); test: AR antagonism assay (luciferase reporter)
T2 sequence (P10275 1-920): T1 sequence (P10275 1-920 T878A) with A878T

[6] = 6 days incubation, CellTiterGlo, read-out: LNCap (IC50)

SMILES | IC50 [1] | IC50 ([2]; read-out: LNCap (IC50, nM)) | IC50 [3] | IC50 [4] | IC50 [5] | IC50 [2, 6]
CC[C@@]1(O)C(=O)OCc2c1cc1n(c2=O)Cc2cc3c(CN(C)C)c(OC(=O)N4CCN(CCCCCCO[C@H]5CC[C@H]6[C@@H]7CCC8=CC(=O)CCC8=C7CC[C@]56C)CC4)ccc3nc2-1 [Compound 45, (S)-10-((dimethylamino)methyl)-4-ethyl-4-hydroxy-3,14-dioxo-3,4,12,14-tetrahydro-1H-pyrano[3′,4′:6,7]indolizino[1,2-b]quinolin-9-yl 4-(6-(((8S,13S,14S,17S)-13-methyl-3-oxo-2,3,6,7,8,11,12,13,14,15,16,17-dodecahydro-1H-cyclopenta[a]phenanthren-17-yl)oxy)hexyl)piperazine-1-carboxylate] | 10 to 100 nM | 10 to 100 nM | 10 to 100 nM | 101 to 1000 nM | 101 to 1000 nM | –
CC[C@@]1(O)C(=O)OCc2c1cc1n(c2=O)Cc2cc3c(CN(C)C)c(OC(=O)N4C[C@H](C)N(CC5CCN(c6ccc(C(=O)N[C@H]7CC[C@H](N(C)c8ccc(C#N)c(Cl)c8)CC7)nn6)CC5)C[C@H]4C)ccc3nc2-1 [Compound No. 20, (S)-10-((Dimethylamino)methyl)-4-ethyl-4-hydroxy-3,14-dioxo-3,4,12,14-tetrahydro-1H-pyrano[3′,4′:6,7]indolizino[1,2-b]quinolin-9-yl (2R,5S)-4-((1-(6-(((1r,4r)-4-((3-chloro-4-cyanophenyl)-(methyl)amino)cyclohexyl)carbamoyl)pyridazin-3-yl)piperidin-4-yl)methyl)-2,5-dimethylpiperazine-1-carboxylate] | 10 to 100 nM | 101 to 1000 nM | 101 to 1000 nM | > 1000 nM | > 1000 nM | –
CC[C@@]1(O)C(=O)OCc2c1cc1n(c2=O)Cc2c-1nc1cc(F)c(C)c3c1c2[C@@H](NC(=O)CN1CCN(CCCCCCC2CCN(c4ccc(C(=O)N[C@H]5CC[C@H](Oc6ccc(C#N)c(Cl)c6C)CC5)nn4)CC2)CC1)CC3 [Compound No. 48, N-((1r,4r)-4-(3-chloro-4-cyano-2-methylphenoxy)cyclohexyl)-6-(4-(6-(4-(2-(((1S,9S)-9-ethyl-5-fluoro-9-hydroxy-4-methyl-10,13-dioxo-2,3,9,10,13,15-hexahydro-1H,12H-benzo[de]pyrano[3′,4′:6,7]indolizino[1,2-b]quinolin-1-yl)amino)-2-oxoethyl)piperazin-1-yl)hexyl)piperidin-1-yl)pyridazine-3-carboxamide] | 10 to 100 nM | – | 101 to 1000 nM | > 1000 nM | 101 to 1000 nM | 101 to 1000 nM
CC[C@@]1(O)C(=O)OCc2c1cc1n(c2=O)Cc2cc3c(CN4CCN(CC5CCN(c6ccc(N7C(=S)N(c8ccc(C#N)c(Cl)c8)C(=O)C7(C)C)cc6)CC5)CC4)c(O)ccc3nc2-1 [Compound No. 53, (S)-2-chloro-4-(3-(4-(4-((4-((4-ethyl-4,9-dihydroxy-3,14-dioxo-3,4,12,14-tetrahydro-1H-pyrano[3′,4′:6,7]indolizino[1,2-b]quinolin-10-yl)methyl)piperazin-1-yl)methyl)piperidin-1-yl)phenyl)-4,4-dimethyl-5-oxo-2-thioxoimidazolidin-1-yl)benzonitrile] | 10 to 100 nM | – | 10 to 100 nM | 101 to 1000 nM | 10 to 100 nM | 10 to 100 nM
CC[C@@]1(O)C(=O)OCc2c1cc1n(c2=O)Cc2cc3c(CN4CCN(C(=O)CCCCCC5CCN(c6ccc(C(=O)N[C@H]7CC[C@H](N(C)c8ccc(C#N)c(Cl)c8)CC7)nn6)CC5)CC4)cccc3nc2-1 [Compound 43] | 10 to 100 nM | – | 101 to 1000 nM | > 1000 nM | > 1000 nM | 101 to 1000 nM
CC[C@@]1(O)C(=O)OCc2c1cc1n(c2=O)Cc2cc3c(CN4CCN(CCCCCCC5CCN(c6ccc(C(=O)N[C@H]7CC[C@H](Oc8ccc(C#N)c(Cl)c8C)CC7)nn6)CC5)CC4)cccc3nc2-1 [Compound 44, N-((1r,4r)-4-(3-chloro-4-cyano-2-methylphenoxy)cyclohexyl)-6-(4-(6-(4-(((S)-4-ethyl-4-hydroxy-3,14-dioxo-3,4,12,14-tetrahydro-1H-pyrano[3′,4′:6,7]indolizino[1,2-b]quinolin-10-yl)methyl)piperazin-1-yl)hexyl)piperidin-1-yl)pyridazine-3-carboxamide] | 10 to 100 nM | – | 101 to 1000 nM | > 1000 nM | > 1000 nM | 101 to 1000 nM
CC[C@@]1(O)C(=O)OCc2c1cc1n(c2=O)Cc2cc3c(CN4CCN(C(=O)CCCCCC5CCN(c6ccc(C(=O)N[C@H]7CC[C@H](N(C)c8ccc(C#N)c(Cl)c8)CC7)nn6)CC5)CC4)c(O)ccc3nc2-1 [Compound No. 49] | 10 to 100 nM | – | 10 to 100 nM | > 1000 nM | > 1000 nM | 10 to 100 nM
CC[C@@]1(O)C(=O)OCc2c1cc1n(c2=O)Cc2cc3c(CN(C)C)c(OC(=O)N4C[C@H](C)N(CCCCCCN(C)C5CCN(c6ccc(C(=O)N[C@H]7CC[C@H](Oc8ccc(C#N)c(Cl)c8C)CC7)nn6)CC5)C[C@H]4C)ccc3nc2-1 [Compound 33, (S)-10-((Dimethylamino)methyl)-4-ethyl-4-hydroxy-3,14-dioxo-3,4,12,14-tetrahydro-1H-pyrano[3′,4′:6,7]indolizino[1,2-b]quinolin-9-yl (2R,5S)-4-(6-((1-(6-(((1r,4r)-4-(3-chloro-4-cyano-2-methylphenoxy)cyclohexyl)carbamoyl)pyridazin-3-yl)piperidin-4-yl)(methyl)amino)hexyl)-2,5-dimethylpiperazine-1-carboxylate Formate] | < 10 nM | 10 to 100 nM | 101 to 1000 nM | > 1000 nM | > 1000 nM | –
CC[C@@]1(O)C(=O)OCc2c1cc1n(c2=O)Cc2cc3c(CN4CCN(C(=O)C5CCN(c6ccc(C(=O)N[C@H]7CC[C@H](Oc8ccc(C#N)c(Cl)c8)CC7)nn6)CC5)CC4)c(OC(=O)N(C(C)C)C(C)C)ccc3nc2-1 [Compound 1, (S)-10-((4-(1-(6-(((1r,4r)-4-(3-Chloro-4-cyanophenoxy)cyclohexyl)carbamoyl)pyridazin-3-yl)piperidine-4-carbonyl)piperazin-1-yl)methyl)-4-ethyl-4-hydroxy-3,14-dioxo-3,4,12,14-tetrahydro-1H-pyrano[3′,4′:6,7]indolizino[1,2-b]quinolin-9-yl Diisopropylcarbamate] | 101 to 1000 nM | > 1000 nM | > 1000 nM | > 1000 nM | > 1000 nM | –
CC[C@@]1(O)C(=O)OCc2c1cc1n(c2=O)Cc2cc3c(CN4CCN(C(=O)CCCCCC5CCN(c6ccc(C(=O)N[C@H]7CC[C@H](Oc8ccc(C#N)c(Cl)c8C)CC7)nn6)CC5)CC4)c(O)ccc3nc2-1 [Compound No. 50] | 10 to 100 nM | – | 10 to 100 nM | 101 to 1000 nM | > 1000 nM | 10 to 100 nM
